Laboratory results: article PMC10253456, “Investigating the Contribution of Major Drug-Metabolising Enzymes to Possum-Specific Fertility Control” (International Journal of Molecular Sciences, 2023)
Like-named read-outs stand apart in the source and are kept apart here.

Assays:
CYP3A [1] = assay: CYP3A catalytic activity (erythromycin N-demethylation) in mouse liver microsomes; settings: for Percent control catalytic activity at estimated IC50 / Percent control catalytic activity at estimated 2-fold IC50: mouse liver microsomes, initial screen n=1; for Percent control catalytic activity at estimated IC50: compounds without reported IC50 at 1 µM; for Percent control catalytic activity at estimated 2-fold IC50: compounds without reported IC50 at 5 µM; for % of control (catalytic activity at 2-fold IC50) / Catalytic activity at 2-fold IC50: mouse, compound at estimated 2-fold IC50 (5 µM where none reported)
Description: (§1) Possums were collected from the Otago Peninsula (Dunedin) and the Okuti Valley, Banks Peninsula (Christchurch) in New Zealand in collaboration with the Otago Peninsula Biodiversity Group and Manaaki Whenua-Landcare Research, respectively. […] Possums were caged and humanely killed by a blow to the head, and the livers were harvested, snap-frozen in liquid nitrogen, and stored in a freezer at −80 °C until the preparation of microsomal fractions. […] Mice were euthanised by carbon dioxide inhalation and the livers were removed and microsomes prepared. […] The livers from avian species (mallards and a swan) were kindly donated by a local bird hunting group based in Dunedin, New Zealand. The livers from avian species were treated similarly to those mentioned above for the possum samples.
(§2) Microsomal preparation was carried out as previously described [76]. […] All procedures were performed at 0–4 °C. The liver samples were minced and homogenised in Buffer A (0.1 M Tris, 0.1 M potassium chloride, 1 mM EDTA, and 20 μM butylated hydroxytoluene, at pH = 7.4) using the Teflon-glass homogeniser (5–6 vertical passes). The samples were centrifuged at 10,000× g for 20 min. The supernatant was then transferred into another set of centrifuge tubes and spun at 100,000× g for 60 min. The pellet was resuspended in Buffer B (0.1 M potassium pyrophosphate, 1 mM EDTA, and 20 μM butylated hydroxytoluene, at pH = 7.4), homogenised, and recentrifuged at 100,000× g for 60 min. Finally, the pellet was homogenised in 1–2 mL of Buffer C (10 mM Tris-HCl, 1 mM EDTA, and 4% glycerol (v/v)), and stored at −80 °C until use. The protein concentration of the microsomes was determined using the bicinchoninic acid (BCA) method [77].
(§3) CYP3A catalytic activity was determined using the erythromycin N-demethylation activity assay, as described [78]. The reaction mixture (final volume of 1 mL and final protein concentration of 1 mg) contained 500 µL of microsomes in 0.1 M phosphate buffer (pH 7.4) and 400 µL of erythromycin buffer (0.45 mM), and 50 µL of the test compound was pre-warmed at 37 °C for 2 min. The reaction was initiated with 50 µL of 2.5 mM nicotinamide adenine dinucleotide phosphate (NADP^+) and incubated for 30 min at 37 °C. […] The tubes were vortexed and left for 5 min (at room temperature), and then 330 µL of saturated barium hydroxide was added. The tubes were further vortexed and left for 5 min (at room temperature). The tubes were then centrifuged at 1800× g for 10 min. To 830 µL of the supernatant, 330 µL of Nash reagent (30% (w/v) ammonium acetate, 0.4% (v/v) acetylacetone) was added and further incubated for 30 min at 60 °C. The blank tube contained 330 µL of Nash reagent and 830 µL of Milli-Q water. […] The CYP3A activities were determined in nmol/mg/min using standard curve data. Results presented are the mean ± SEM of 3 independent experiments performed in duplicate unless otherwise stated.

UGT2B [2] = assay: p-nitrophenol glucuronidation activity in pooled human liver microsomes
UGT2B (heading: UGT2B4) [3] = assay: as above; settings: human, pooled human liver microsomes (50 donors), pH 7.4, probe p-nitrophenol (0.5 mM final, from 50 µL of 5 mM in 500 µL)
UGT2B (heading: UGT2B4) [4] = assay: in vitro; settings: avian (mallards and a swan), pH 7.4
UGT2B [5] = assay: p-nitrophenol glucuronidation activity in mouse liver microsomes
UGT2B (heading: UGT2B4) [6] = assay: as above; settings: BALB/c, mouse
UGT2B [7] = assay: p-nitrophenol glucuronidation activity in possum liver microsomes; assay type: biochemical, possum (Trichosurus vulpecula); settings: for % of control (UGT2B4 catalytic activity at 2-fold IC50) / UGT2B4 catalytic activity at 2-fold IC50: compound at estimated 2-fold IC50; for p-nitrophenol glucuronidation (UGT2B) activity, % of the control: at estimated IC50 and 2-fold IC50 values; for Glucuronidation Activities / Percent of Control: p-nitrophenol 0.625 mM
UGT2B (heading: UGT2B4) [8] = assay: as above; assay type: biochemical, possum (Trichosurus vulpecula); settings: possum (Trichosurus vulpecula)
CYP3A [9] = assay: CYP3A catalytic activity (erythromycin N-demethylation) in possum liver microsomes; settings: for Percent control catalytic activity at estimated IC50 / Percent control catalytic activity at estimated 2-fold IC50: possum liver microsomes, initial screen n=1; for Percent control catalytic activity at estimated IC50: compounds without reported IC50 at 1 µM; for Percent control catalytic activity at estimated 2-fold IC50: compounds without reported IC50 at 5 µM; for % of control (catalytic activity at 2-fold IC50) / Catalytic activity at 2-fold IC50: possum, compound at estimated 2-fold IC50 (5 µM where none reported)
Description: as §1, §2, §3

UGT2B [10] = settings: avian; for % of control (UGT2B4 catalytic activity at 2-fold IC50) / UGT2B4 catalytic activity at 2-fold IC50: compound at estimated 2-fold IC50
CYP3A [11] = assay: CYP3A catalytic activity (erythromycin N-demethylation) in pooled human liver microsomes; settings: for % of control (catalytic activity at 2-fold IC50) / Catalytic activity at 2-fold IC50: compound at estimated 2-fold IC50 (5 µM where none reported); for activity at 30 min: human, pH 7.4, probe erythromycin, % of control (catalytic activity at IC50), compound at estimated IC50 (1 µM where none reported)
Description: as §3

CYP3A [12] = settings: avian; compound at estimated 2-fold IC50 (5 µM where none reported)
Description: as §1, §2, §3

[13] = pooled human liver microsomes, compound at estimated 2-fold IC50
[14] = mouse, compound at estimated 2-fold IC50
[15] = liver microsomes, pH 7.4, probe p-nitrophenol (0.5 mM final, from 50 µL of 5 mM in 500 µL), compound at estimated IC50, read-out: % of control (UGT2B4 catalytic activity at IC50)
[16] = pH 7.4, compound at estimated IC50, read-out: % of control (UGT2B4 catalytic activity at IC50)

SMILES	Percent control catalytic activity at estimated IC50 (CYP3A [1]) [percent control]	Percent control catalytic activity at estimated 2-fold IC50 (CYP3A [1]) [percent control]	activity at 30 min (UGT2B (heading: UGT2B4) [3]) [%]	activity at 30 min (UGT2B (heading: UGT2B4) [4]) [%]	% of control (UGT2B4 catalytic activity at 2-fold IC50) (UGT2B [5]; [14])	UGT2B4 catalytic activity at 2-fold IC50 (UGT2B [5]; [14]) [µmol/mg/min]	activity at 30 min (UGT2B (heading: UGT2B4) [6]; pH 7.4) [%]	% of control (UGT2B4 catalytic activity at 2-fold IC50) (UGT2B [7])	UGT2B4 catalytic activity at 2-fold IC50 (UGT2B [7]) [µmol/mg/min]	Percent control catalytic activity at estimated IC50 (CYP3A [9]) [percent control]	Percent control catalytic activity at estimated 2-fold IC50 (CYP3A [9]) [percent control]	% of control (UGT2B4 catalytic activity at 2-fold IC50) (UGT2B [10])	UGT2B4 catalytic activity at 2-fold IC50 (UGT2B [10]) [µmol/mg/min]	activity at 30 min (CYP3A [11]) [%]	other results
C[C@@H]1CC[C@H]2C(C)(C)[C@H]3C[C@@]12CC[C@@]3(C)O [Cedrol]	90	62	98	96	84 % of control	2.57 ± 0.16	84	92 % of control	3.78 ± 0.13	107	99	91 % of control	0.56 ± 0.13	–	% of control (UGT2B4 catalytic activity at 2-fold IC50) (UGT2B [2]; [13]): 98 % of control; UGT2B4 catalytic activity at 2-fold IC50 (UGT2B [2]; [13]): 3.85 µmol/mg/min; activity at 30 min (UGT2B (heading: UGT2B4) [8]; [15]): 93%
CC[C@H]1OC(=O)[C@H](C)[C@@H](O[C@H]2C[C@@](C)(OC)[C@@H](O)[C@H](C)O2)[C@H](C)[C@@H](O[C@@H]2O[C@H](C)C[C@H](N(C)C)[C@H]2O)[C@](C)(OC)C[C@@H](C)C(=O)[C@H](C)[C@@H](O)[C@]1(C)O [Clarithromycin]	89	81	–	110	90 % of control	1.77 ± 0.12	120	96 % of control	3.51 ± 0.28	90	117	48 % of control	0.20 ± 0.08	95	% of control (catalytic activity at 2-fold IC50) (CYP3A [11]): 91 % of control; Catalytic activity at 2-fold IC50 (CYP3A [11]): 0.59 nmol/mg/min; % of control (catalytic activity at 2-fold IC50) (CYP3A [1]): 95 % of control; Catalytic activity at 2-fold IC50 (CYP3A [1]): 0.60 ± 0.09 nmol/mg/min; activity at 30 min (UGT2B (heading: UGT2B4) [8]; [16]): 108%; % of control (catalytic activity at 2-fold IC50) (CYP3A [9]): 103 % of control; Catalytic activity at 2-fold IC50 (CYP3A [9]): 0.43 ± 0.01 nmol/mg/min; % of control (catalytic activity at 2-fold IC50) (CYP3A [12]): 94 % of control; Catalytic activity at 2-fold IC50 (CYP3A [12]): 0.41 ± 0.07 nmol/mg/min
CC(C)c1nc(CN(C)C(=O)N[C@@H](CCN2CCOCC2)C(=O)N[C@H](CC[C@H](Cc2ccccc2)NC(=O)OCc2cncs2)Cc2ccccc2)cs1 [Cobicistat]	–	–	110	33	–	–	–	–	–	–	–	–	–	–	activity at 30 min (UGT2B (heading: UGT2B4) [6]; liver microsomes, pH 7.4, probe p-nitrophenol (0.5 mM final, from 50 µL of 5 mM in 500 µL)): 104%
OC(Cn1cncn1)(Cn1cncn1)c1ccc(F)cc1F [Fluconazole]	70	–	112	224	–	–	81	–	–	107	–	–	–	91	p-nitrophenol glucuronidation (UGT2B) activity, % of the control (UGT2B [7]): > 65 % of the control; activity at 30 min (UGT2B (heading: UGT2B4) [8]; [16]): 93%
COc1cc(C2Oc3ccc([C@H]4Oc5cc(O)cc(O)c5C(=O)[C@@H]4O)cc3OC2CO)ccc1O (stereo partly drawn) [Isosilybin]	71	–	–	–	80 % of control	1.55 ± 0.19	–	65 % of control	2.21 ± 0.17	73	–	67 % of control	0.28 ± 0.11	–	p-nitrophenol glucuronidation (UGT2B) activity, % of the control (UGT2B [2]; pooled human liver microsomes, at estimated IC50 and 2-fold IC50 values): no significant inhibition; % of control (UGT2B4 catalytic activity at 2-fold IC50) (UGT2B [2]; [13]): 107 % of control; UGT2B4 catalytic activity at 2-fold IC50 (UGT2B [2]; [13]): 3.15 µmol/mg/min; % of control (UGT2B4 catalytic activity at IC50) (UGT2B [2]; pooled human liver microsomes, compound at estimated IC50): 93 % of control; % of control (UGT2B4 catalytic activity at IC50) (UGT2B [5]; mouse, compound at estimated IC50): 96 % of control; inhibitory potential on glucuronidation activity with varying concentrations of p-nitrophenol (substrate) (UGT2B [7]; Table 1): no significant changes compared to their respective control activities; p-nitrophenol glucuronidation (UGT2B) activity, % of the control (UGT2B [7]): > 65 % of the control; % of control (UGT2B4 catalytic activity at IC50) (UGT2B [7]; compound at estimated IC50): 78 % of control; Glucuronidation Activities (UGT2B [7]; isosilybin 100 µM): 0.12 ± 0.09 µmol/mg/min; Percent of Control (UGT2B [7]; isosilybin 100 µM): 63% of Control; Glucuronidation Activities (UGT2B [7]; isosilybin 200 µM): 0.13 ± 0.05 µmol/mg/min; Percent of Control (UGT2B [7]; isosilybin 200 µM): 67% of Control; % of control (UGT2B4 catalytic activity at IC50) (UGT2B [10]; compound at estimated IC50): 101 % of control
CCC(C)n1ncn(-c2ccc(N3CCN(c4ccc(OCC5COC(Cn6cncn6)(c6ccc(Cl)cc6Cl)O5)cc4)CC3)cc2)c1=O (stereo not drawn) [Itraconazole]	91	91	95	118	–	–	125	102 % of control	3.06 ± 0.25	141	120	94 % of control	0.35 ± 0.05	–	% of control (UGT2B4 catalytic activity at 2-fold IC50) (UGT2B [2]): 88; UGT2B4 catalytic activity at 2-fold IC50 (UGT2B [2]): 2.80 µmol/mg/min; % of control (UGT2B4 catalytic activity at 2-fold IC50) (UGT2B [5]): 106; UGT2B4 catalytic activity at 2-fold IC50 (UGT2B [5]): 1.99 ± 0.24 µmol/mg/min; activity at 30 min (UGT2B (heading: UGT2B4) [8]; [15]): 102%
COc1ccc(/C=C/c2cc(O)cc(O)c2)cc1O [Rhapontigenin]	116	157	–	–	–	–	–	–	–	103	103	–	–	106	% of control (catalytic activity at 2-fold IC50) (CYP3A [11]): 110 % of control; Catalytic activity at 2-fold IC50 (CYP3A [11]): 0.53 nmol/mg/min; % of control (catalytic activity at 2-fold IC50) (CYP3A [1]): 144 % of control; Catalytic activity at 2-fold IC50 (CYP3A [1]): 0.52 ± 0.05 nmol/mg/min; % of control (catalytic activity at 2-fold IC50) (CYP3A [9]): 124 % of control; Catalytic activity at 2-fold IC50 (CYP3A [9]): 0.40 ± 0.03 nmol/mg/min; % of control (catalytic activity at 2-fold IC50) (CYP3A [12]): 101 % of control; Catalytic activity at 2-fold IC50 (CYP3A [12]): 0.30 ± 0.03 nmol/mg/min
